Experimental data: patent US20260306429A1, “COMPOSITION FOR REDUCING METHANE PRODUCTION AND IMPROVING NITROGEN UTILIZATION EFFICIENCY OF RUMINANT ANIMALS COMPRISING HALOACETAMIDE AS ACTIVE INGREDIENT” (CHUNGANG UNIVERSITY INDUSTRY ACADEMIC COOPERATION FOUNDATION, priority 2024, published 2026)

Legend:
[1] = tested on: rumen fluid; experiment: In vitro incubation of rumen fluid: digestibility, fermentation characteristics, gas and methane production, VFA; assay type: cell-based, Hanwoo cows; settings: 0.2 mmol/L; for CH4 (methane production per gram of degraded dry matter) / CH4 (methane production) / TGP (total gas production): up to 24 h
Protocol: (§1) Rumen fluid was sampled from Hanwoo cows at the Nonghyup Research Farm in Anseong, Gyeonggi Province, and mixed with buffer at a ratio of 1:2 within 1 hour of sampling. Oat hay was used as the forage, and pelleted feed for the middle fattening period was used as the concentrate. After grinding, the forage and concentrate were mixed at a ratio of 1:1 after passing through a 1-mm screen. 50 ml of culture medium was dispensed into 0.5 g of dry matter, and the control group and the five experimental groups (acrylamide, chloroacetamide, glycolamide, iodoacetamide, and propionamide) were each incubated for 24 hours with five replicates. The control group was incubated in 50 mL of culture medium, whereas the experimental groups were incubated in 49.9 mL of culture medium plus 0.1 mL of deionized water. For the five experimental groups, the supplementation level of each amide was set to 0.2 mmol/L (final concentration), and the amounts added were 1.4216 mg/g for acrylamide, 1.8702 mg/g for 2-chloroacetamide, 1.4618 mg/g for propionamide, 1.5014 mg/g for glycolamide, and 3.6992 mg/g for iodoacetamide.
(§2) Gas pressure was measured at 0, 3, 6, 12, and 24 hours (gas collection intervals), and the gas released during each measurement was collected to determine the total gas production and methane production up to the final 24 hours. After completing the 24-hour incubation, pH, ammonia nitrogen (NH3—N), dry matter digestibility, neutral detergent fiber digestibility, volatile fatty acids (VFA), and the microbiome were analyzed.
(§3) Data conforming to normal distribution and homogeneity of variance were analyzed using the GLIMMIX procedure of SAS and Tukey's HSD test. […] Differences in the overall bacteriota and their functional profiles were analyzed using PERMANOVA. Differentially abundant microbial biomarkers were identified using multivariable association analysis with the MaAsLin2 R package, based on relatively abundant bacterial taxa and predicted microbial functions.

[2] = tested on: Total bacteria; experiment: qPCR absolute quantification of total bacteria after in vitro rumen incubation; assay type: cell-based, rumen fluid of Hanwoo cows; settings: 0.2 mmol/L, 24 h
Protocol: as §1, §2
(§4) Metagenomic DNA was extracted using the RBB+C method, followed by qPCR analysis and microbiome analysis. Microbial functions were predicted using PICRUSt2. Taxonomic drivers of differentially enriched MetaCyc pathways were identified using Fish Taco (Functional Shifts' Taxonomic Contributor).
as §3
(§5) For the control group and the five experimental groups (acrylamide, chloroacetamide, glycolamide, iodoacetamide, and propionamide), the effects of the amide compounds on the absolute quantification of total bacteria, methanogens, protozoa, and specific cellulolytic bacterial species (Fibrobacter succinogenes, Ruminococcus flavefaciens, Ruminococcus albus, and Prevotella ruminicola) are presented in Table 3 below as quantitative real-time PCR data.

[3] = tested on: Total methanogen; experiment: qPCR absolute quantification of methanogens after in vitro rumen incubation; assay type: cell-based, rumen fluid of Hanwoo cows; settings: 0.2 mmol/L, 24 h
Protocol: as §1, §2, §4, §3, §5

[4] = tested on: Total protozoa; experiment: qPCR absolute quantification of protozoa after in vitro rumen incubation; assay type: cell-based, rumen fluid of Hanwoo cows; settings: 0.2 mmol/L, 24 h
Protocol: as §1, §2, §4, §3, §5

[5] = tested on: Fibrobacter succinogenes; experiment: qPCR absolute quantification of Fibrobacter succinogenes after in vitro rumen incubation; assay type: cell-based; settings: 0.2 mmol/L, 24 h
Protocol: as §1, §2, §4, §3, §5

[6] = tested on: Ruminococcus flavefaciens; experiment: qPCR absolute quantification of Ruminococcus flavefaciens after in vitro rumen incubation; assay type: cell-based; settings: 0.2 mmol/L, 24 h
Protocol: as §1, §2, §4, §3, §5

[7] = tested on: Ruminococcus albus; experiment: qPCR absolute quantification of Ruminococcus albus after in vitro rumen incubation; assay type: cell-based; settings: 0.2 mmol/L, 24 h
Protocol: as §1, §2, §4, §3, §5

[8] = tested on: Prevotella ruminicola; experiment: qPCR absolute quantification of Prevotella ruminicola after in vitro rumen incubation; assay type: cell-based; settings: 0.2 mmol/L, 24 h
Protocol: as §1, §2, §4, §3, §5

[9] = tested on: rumen microbiome; experiment: Alpha-diversity measurements of the rumen microbiome; assay type: cell-based, rumen fluid of Hanwoo cows; settings: 0.2 mmol/L, 24 h
Protocol: as §1, §2, §4, §3
The alpha-diversity measurements for the control group and the five experimental groups (acrylamide, chloroacetamide, glycolamide, iodoacetamide, and propionamide) are presented in Table 4 below.

[10] = tested on: rumen microbiota; experiment: Differentially abundant genera and species in response to haloacetamide treatment; taxonomic drivers; assay type: cell-based, rumen fluid of Hanwoo cows; settings: in words
Protocol: Rumen fluid was sampled from Hanwoo cows at the Nonghyup Research Farm in Anseong, Gyeonggi Province, and mixed with buffer at a ratio of 1:2 within 1 hour of sampling. Oat hay was used as the forage, and pelleted feed for the middle fattening period was used as the concentrate. After grinding, the forage and concentrate were mixed at a ratio of 1:1 after passing through a 1-mm screen. 50 ml of culture medium was dispensed into 0.5 g of dry matter, and the control group and the five experimental groups (acrylamide, chloroacetamide, glycolamide, iodoacetamide, and propionamide) were each incubated for 24 hours with five replicates. […]
Gas pressure was measured at 0, 3, 6, 12, and 24 hours (gas collection intervals), and the gas released during each measurement was collected to determine the total gas production and methane production up to the final 24 hours. After completing the 24-hour incubation, pH, ammonia nitrogen (NH3—N), dry matter digestibility, neutral detergent fiber digestibility, volatile fatty acids (VFA), and the microbiome were analyzed. […]
Data conforming to normal distribution and homogeneity of variance were analyzed using the GLIMMIX procedure of SAS and Tukey's HSD test. […] Differences in the overall bacteriota and their functional profiles were analyzed using PERMANOVA. […]

Structure (SMILES)	A:P ratio (acetate:propionate ratio) ([1]; 24 h)	DMD (dry matter digestibility) ([1]; 24 h)	NDFD (neutral detergent fiber digestibility) ([1]; 24 h)	NH3—N (ammonia nitrogen) ([1]; 24 h)	pH ([1]; 24 h)	Acetate ([1]; 24 h, VFA composition)	Butyrate ([1]; 24 h, VFA composition)	Isobutyrate ([1]; 24 h, VFA composition) [%]	Isovalerate ([1]; 24 h, VFA composition)	Propionate ([1]; 24 h, VFA composition)	Valerate ([1]; 24 h, VFA composition)	Acetate ([1]; 24 h, concentration)	Butyrate ([1]; 24 h, concentration)	Isobutyrate ([1]; 24 h, concentration)	Isovalerate ([1]; 24 h, concentration)	Propionate ([1]; 24 h, concentration)	Total VFA (total volatile fatty acids) ([1]; 24 h, concentration)	Valerate ([1]; 24 h, concentration) [mM]	CH4 (methane production per gram of degraded dry matter) [1]	CH4 (methane production) [1]	other results
C=CC(N)=O [AA, acrylamide]	3.03^A	78.14^AB %	42.04^B %	16.61^A mg/dL	6.21	61.85^A %	13.87^B %	0.88	1.23^ABC %	20.42^C %	1.76^B %	43.81^A mM	9.82^AB mM	0.62^A mM	0.87^A mM	14.45^AB mM	70.82^A mM	1.24	29.06^A mL/g dDM	11.35^A mL	TGP (total gas production) [1]: 145.83^A mL; Total bacteria (absolute quantification, qPCR) [2]: 10.30^AB; Total methanogen (absolute quantification, qPCR) [3]: 8.38^A; Total protozoa (absolute quantification, qPCR) [4]: 9.78; Fibrobacter succinogenes (absolute quantification, qPCR) [5]: 9.39^C; Ruminococcus flavefaciens (absolute quantification, qPCR) [6]: 8.31^B; Ruminococcus albus (absolute quantification, qPCR) [7]: 7.77^B; Prevotella ruminicola (absolute quantification, qPCR) [8]: 9.44^C; Chao1 [9]: 284.8^B; Evenness [9]: 0.8823^B; Observed features [9]: 284.8^B; Shannon [9]: 7.1896^B; Simpson [9]: 0.9883^B
NC(=O)CCl [CLA, 2-chloroacetamide]	2.34^B	77.82^AB %	43.61^B %	13.90^B mg/dL	6.19	55.96^B %	16.30^A %	0.80	1.09^BC %	23.89^B %	1.95^AB %	35.41^BC mM	10.25^A mM	0.50^BC mM	0.68^B mM	15.07^AB mM	63.14^AB mM	1.22	10.71^C mL/g dDM	4.17^C mL	methane-reducing effects ([1]; 24 h, in words, from Table 1): excellent methane-reducing effects; TGP (total gas production) [1]: 134.49^B mL; Total bacteria (absolute quantification, qPCR) [2]: 10.28^B; Total methanogen (absolute quantification, qPCR) [3]: 8.05^AB; Total protozoa (absolute quantification, qPCR) [4]: 9.77; Fibrobacter succinogenes (absolute quantification, qPCR) [5]: 9.54^B; Ruminococcus flavefaciens (absolute quantification, qPCR) [6]: 8.27^B; Ruminococcus albus (absolute quantification, qPCR) [7]: 7.96^A; Prevotella ruminicola (absolute quantification, qPCR) [8]: 9.58^B; Chao1 [9]: 382.3^AB; Evenness [9]: 0.8847^AB; Observed features [9]: 380.8^AB; Shannon [9]: 7.5719^AB; Simpson [9]: 0.9903^AB; differentially abundant bacteria [10]: increases bacteria belonging to the genera Fibrobacter, Anaeroplasma, Treponema, and Succinivibrio, and the species Ruminococcus albus
NC(=O)CO [GA, glycolamide]	2.92^A	79.40^A %	40.82^B %	14.76^AB mg/dL	6.22	60.74^A %	14.30^B %	0.93	1.32^A %	20.83^C %	1.88^AB %	37.24^ABC mM	8.74^B mM	0.57^AB mM	0.80^A mM	12.77^B mM	61.27^AB mM	1.15	26.85^B mL/g dDM	10.65^B mL	TGP (total gas production) [1]: 141.74^A mL; Total bacteria (absolute quantification, qPCR) [2]: 10.25^B; Total methanogen (absolute quantification, qPCR) [3]: 8.33^A; Total protozoa (absolute quantification, qPCR) [4]: 9.69; Fibrobacter succinogenes (absolute quantification, qPCR) [5]: 9.36^C; Ruminococcus flavefaciens (absolute quantification, qPCR) [6]: 8.29^B; Ruminococcus albus (absolute quantification, qPCR) [7]: 7.71^B; Prevotella ruminicola (absolute quantification, qPCR) [8]: 9.42^C; Chao1 [9]: 436.4^AB; Evenness [9]: 0.8956^A; Observed features [9]: 435.6^AB; Shannon [9]: 7.8466^A; Simpson [9]: 0.9927^A
CCC(N)=O [PA, propionamide]	2.96^A	78.34^AB %	41.80^B %	16.50^A mg/dL	6.22	60.97^A %	14.31^B %	0.92	1.30^AB %	20.64^C %	1.86^AB %	38.55^AB mM	9.04^AB mM	0.58^AB mM	0.82^A mM	13.04^B mM	63.20^AB mM	1.17	28.32^AB mL/g dDM	11.09^AB mL	TGP (total gas production) [1]: 143.63^A mL; Total bacteria (absolute quantification, qPCR) [2]: 10.27^B; Total methanogen (absolute quantification, qPCR) [3]: 8.42^A; Total protozoa (absolute quantification, qPCR) [4]: 9.79; Fibrobacter succinogenes (absolute quantification, qPCR) [5]: 9.35^C; Ruminococcus flavefaciens (absolute quantification, qPCR) [6]: 8.31^B; Ruminococcus albus (absolute quantification, qPCR) [7]: 7.71^B; Prevotella ruminicola (absolute quantification, qPCR) [8]: 9.45^C; Chao1 [9]: 406.2^AB; Evenness [9]: 0.8873^AB; Observed features [9]: 405.6^AB; Shannon [9]: 7.6692^A; Simpson [9]: 0.9913^AB
